Assay results published in paper PMC10808224, “Lsr2 acts as a cyclic di-GMP receptor that promotes keto-mycolic acid synthesis and biofilm formation in mycobacteria” (Nature Communications, 2024).

Molecular target: T1, Lsr2Msm (Mycolicibacterium smegmatis, UniProt A0R576)
T1 construct: gene MSMEG_6092; recombinant, E. coli BL21 (DE3), modified pET28a, C-terminal His-tag, Ni-NTA purified
Assay: isothermal titration calorimetry
Type: binding

`Nc1nc2c(ncn2[C@@H]2O[C@@H]3CO[P@](=O)(O)O[C@H]4[C@@H](O)[C@H](n5cnc6c(=O)[nH]c(N)nc65)O[C@@H]4CO[P@](=O)(O)O[C@H]3[C@H]2O)c(=O)[nH]1` [c-di-GMP] was tested. Which Kd did it give?
The Kd was 96.4 nM.
